Test: Dynamic vapor sorption (moisture sorption) experiment
Conditions: for stability in the moisture sorption experiment (XRPD of dried sample): after DVS
Procedure: Dynamic vapor sorption experiments were performed on Form A, Form B, and Form D. Table 103 provides the results of the DVS experiment.

| Compound | moisture adsorbed (60% RH) | moisture adsorbed (90% RH) | % wt change at 60% RH (DVS, 60% RH) | % wt change at 90% RH (DVS, 90% RH) | stability in the moisture sorption experiment (XRPD of dried sample) (dried at 60° C. and 0% RH) | XRPD (post DVS) (after moisture sorption experiment, dried at 60° C. and 0% RH) |
| --- | --- | --- | --- | --- | --- | --- |
| CC(C)N1CCN(c2ccc(Nc3ncc4cc5n(c4n3)C3(CCCCC3)CNC5=O)nc2)CC1 [Form B] | 5.8 wt % | 5.9 wt % | 5.8 % wt | 5.9 % wt | stable | Form B |
| CC(C)N1CCN(c2ccc(Nc3ncc4cc5n(c4n3)C3(CCCCC3)CNC5=O)nc2)CC1 [Compound II, 2′-((5-(4-isopropylpiperazin-1-yl)pyridin-2-yl)amino)-7′,8′-dihydro-6′H-spiro[cyclohexane-1,9′-pyrazino[1′,2′:1,5]pyrrolo[2,3-d]pyrimidin]-6′-one] |  |  |  |  | remained in Form B |  |

Source: patent US11357779B2 (G1 Therapeutics, Inc., priority 2018, dated 2022)
